Calls of active or inactive are those of the source. The rule behind the calls is not given here.
Tests used:
[1] = AUC (0 to infinity) in Han Wistar rat at 5 mg/kg, po by LC-MS/MS analysis; format: ADME, organism-based; parameters: dose 5 mg/kg, time infinity, route oral; conditions: in vivo
[2] = Cmax in Han Wistar rat at 5 mg/kg, po by LC-MS/MS analysis; format: ADME, organism-based; parameters: dose 5 mg/kg, route oral; conditions: in vivo
[3] = Oral availability in Han Wistar rat at 5 mg/kg by LC-MS/MS analysis; format: ADME, organism-based; conditions: in vivo
[4] = Half life in Han Wistar rat at 5 mg/kg, po by LC-MS/MS analysis; format: ADME, organism-based; conditions: in vivo
[5] = AUC (0 to t) in Han Wistar rat at 5 mg/kg, po by LC-MS/MS analysis; format: ADME, organism-based; conditions: in vivo
[6] = Tmax in Han Wistar rat at 5 mg/kg, po by LC-MS/MS analysis; format: ADME, organism-based; conditions: in vivo
[7] = target: T1, Nonstructural protein 5A (Hepatitis C virus) (UniProt Q5L478); test: Potency index, ratio of EC50 of cpd1 to EC50 of compound for inhibition of HCV genotype 2a con NS5A infected in HuH-Lcu-Neo cells assessed as reduction in viral replication incubated for 48 hrs by luciferase reporter gene assay; format: cell-based; conditions: Hepatitis C virus subtype 2a
T1 sequence (whole entry): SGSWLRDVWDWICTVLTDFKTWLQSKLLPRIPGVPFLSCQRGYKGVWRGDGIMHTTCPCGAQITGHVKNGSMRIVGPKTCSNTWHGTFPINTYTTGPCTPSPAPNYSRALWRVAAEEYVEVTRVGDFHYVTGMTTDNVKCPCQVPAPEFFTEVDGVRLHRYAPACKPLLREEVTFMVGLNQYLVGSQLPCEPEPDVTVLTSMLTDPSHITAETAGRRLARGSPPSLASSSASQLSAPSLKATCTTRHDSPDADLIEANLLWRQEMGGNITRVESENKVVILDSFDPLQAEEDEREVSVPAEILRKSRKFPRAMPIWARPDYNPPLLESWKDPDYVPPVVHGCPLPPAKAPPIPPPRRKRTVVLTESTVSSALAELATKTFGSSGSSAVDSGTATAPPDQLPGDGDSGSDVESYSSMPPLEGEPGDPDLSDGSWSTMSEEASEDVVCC

[8] = target: T1, Nonstructural protein 5A (Hepatitis C virus); test: Inhibition of HCV NS5A infected in HuH-Lcu-Neo cells assessed as reduction in viral replication in presence of NNI incubated for 48 hrs by luciferase reporter gene assay; format: cell-based; conditions: Hepacivirus hominis
[9] = target: T1, Nonstructural protein 5A (Hepatitis C virus); test: Inhibition of HCV genotype 2a con NS5A infected in HuH-Lcu-Neo cells assessed as fold reduction in virus RNA level at 10 times of EC90 incubated for 21 days by luciferase reporter gene assay; format: cell-based; conditions: Hepatitis C virus subtype 2a
[10] = target: T1, Nonstructural protein 5A (Hepatitis C virus); test: Potency index, ratio of EC50 of DCV to EC50 of compound for inhibition of patient-derived HCV genotype 2a NS5A infected in HuH-Lcu-Neo cells assessed as reduction in viral replication incubated for 48 hrs by luciferase reporter gene assay; format: cell-based; conditions: Hepatitis C virus subtype 2a
[11] = target: T1, Nonstructural protein 5A (Hepatitis C virus); test: Inhibition of HCV NS5A infected in HuH-Lcu-Neo cells assessed as reduction in viral replication in presence of NM107 incubated for 48 hrs by luciferase reporter gene assay; format: cell-based; conditions: Hepacivirus hominis
[12] = target: T1, Nonstructural protein 5A (Hepatitis C virus); test: Potency index, ratio of EC50 of DCV to EC50 of compound for inhibition of patient-derived HCV genotype 3a NS5A infected in HuH-Lcu-Neo cells assessed as reduction in viral replication incubated for 48 hrs by luciferase reporter gene assay; format: cell-based; conditions: Hepatitis C virus subtype 3a
[13] = target: T1, Nonstructural protein 5A (Hepatitis C virus); test: Inhibition of HCV NS5A infected in HuH-Lcu-Neo cells assessed as reduction in viral replication in presence of BILN2061 incubated for 48 hrs by luciferase reporter gene assay; format: cell-based; conditions: Hepacivirus hominis
[14] = target: T1, Nonstructural protein 5A (Hepatitis C virus); test: Inhibition of HCV genotype 1b NS5A infected in HuH-Lcu-Neo cells assessed as log reduction in virus RNA level at 10 times of EC90 incubated for 21 days by luciferase reporter gene assay; format: cell-based; conditions: Hepatitis C virus subtype 1b
[15] = target: T1, Nonstructural protein 5A (Hepatitis C virus); test: Inhibition of HCV NS5A infected in HuH-Lcu-Neo cells assessed as reduction in viral replication in presence of ribavirin incubated for 48 hrs by luciferase reporter gene assay; format: cell-based; conditions: Hepacivirus hominis
[16] = target: T1, Nonstructural protein 5A (Hepatitis C virus); test: Potency index, ratio of EC50 of DCV to EC50 of compound for inhibition of HCV genotype 2a con NS5A infected in HuH-Lcu-Neo cells assessed as reduction in viral replication incubated for 48 hrs by luciferase reporter gene assay; format: cell-based; conditions: Hepatitis C virus subtype 2a
[17] = target: T1, Nonstructural protein 5A (Hepatitis C virus); test: Inhibition of HCV genotype 3a con NS5A infected in HuH-Lcu-Neo cells assessed as fold reduction in virus RNA level at 10 times of EC90 incubated for 21 days by luciferase reporter gene assay; format: cell-based; conditions: Hepatitis C virus subtype 3a
[18] = target: T1, Nonstructural protein 5A (Hepatitis C virus); test: Potency index, ratio of EC50 of DCV to EC50 of compound for inhibition of HCV genotype 3a con NS5A infected in HuH-Lcu-Neo cells assessed as reduction in viral replication incubated for 48 hrs by luciferase reporter gene assay; format: cell-based; conditions: Hepatitis C virus subtype 3a
[19] = target: T1, Nonstructural protein 5A (Hepatitis C virus); test: Inhibition of HCV genotype 1a NS5A infected in HuH-Lcu-Neo cells assessed as log reduction in virus RNA level at 10 times of EC90 incubated for 21 days by luciferase reporter gene assay; format: cell-based; conditions: Hepatitis C virus subtype 1a

Structure (SMILES): COC(=O)N[C@H](C(=O)N1[C@H](c2ncc(-c3ccc4c(c3)-c3ccc(-c5cnc([C@@H]6C[C@@H]7CCC[C@@H]7N6C(=O)[C@@H](NC(=O)OC)[C@@H](C)OC)[nH]5)cc3-4)[nH]2)C[C@@H]2CCC[C@@H]21)[C@@H](C)OC.Cl
- AUC(0-inf) [1]: 1260 ng·h/mL
- Cmax [2]: 258 ng/mL
- bioavailability [3]: 41%
- half-life [4]: 1.7 h
- AUC(0-t) [5]: 1250 ng·h/mL
- Tmax [6]: 1.5 h

Structure (SMILES): COC(=O)N[C@H](C(=O)N1CCC[C@H]1c1ncc(-c2ccc3c(c2)-c2ccc(-c4cnc([C@@H]5CCCN5C(=O)[C@@H](c5ccccc5)N(C)C)[nH]4)cc2-3)[nH]1)C(C)C
- Ratio EC50 [7]: 22

Structure (SMILES): COC(=O)N[C@H](C(=O)N1[C@H](c2ncc(-c3ccc4c(c3)-c3ccc(-c5cnc([C@@H]6C[C@@H]7CCC[C@@H]7N6C(=O)[C@@H](NC(=O)OC)[C@@H](C)OC)[nH]5)cc3-4)[nH]2)C[C@@H]2CCC[C@@H]21)[C@@H](C)OC
- inhibition [8]: inactive
- fold change (FC) [9]: 1.8 to 3.1
- Ratio EC50 [10]: 74
- inhibition [11]: inactive
- Ratio EC50 [12]: 37
- inhibition [13]: inactive
- FC [14]: > 5
- inhibition [15]: inactive
- Ratio EC50 [16]: 462
- fold change (FC) [17]: 1.8 to 3.1
- Ratio EC50 [18]: 20
- FC [19]: 1.8 to 3.1

— ChEMBL document CHEMBL4354870, “GSK2818713, a Novel Biphenylene Scaffold-Based Hepatitis C NS5A Replication Complex Inhibitor with Broad Genotype Coverage” (J Med Chem, 2020)
